Assay results from doi:10.1101/2025.01.28.635346v1 (bioRxiv, 2025).
Bridge positions count the residues as written; N and C are the ends. Side chains are listed from the residue outwards. Peptide text beside a SMILES is read from it. * marks the point of attachment. Butanoyl(4-(4-I-phenyl)) = O=C(CCCc1ccc(I)cc1)*; PEG2 = NCCOCCOCCC(=O)O

Tests used:
OPRK1 = OPRK1 (Homo sapiens, UniProt P41145); test: Safetyscan47 GPCR cAMP, Agonist; format: cell-based; settings: for Emax: read-out: Max Response
GR = target: T1, GR (Homo sapiens, UniProt P04150); test: Safetyscan47 NHR Protein Interaction, Antagonist; format: cell-based; settings: for Emax: read-out: Max Response
T1 sequence (P04150 1-777): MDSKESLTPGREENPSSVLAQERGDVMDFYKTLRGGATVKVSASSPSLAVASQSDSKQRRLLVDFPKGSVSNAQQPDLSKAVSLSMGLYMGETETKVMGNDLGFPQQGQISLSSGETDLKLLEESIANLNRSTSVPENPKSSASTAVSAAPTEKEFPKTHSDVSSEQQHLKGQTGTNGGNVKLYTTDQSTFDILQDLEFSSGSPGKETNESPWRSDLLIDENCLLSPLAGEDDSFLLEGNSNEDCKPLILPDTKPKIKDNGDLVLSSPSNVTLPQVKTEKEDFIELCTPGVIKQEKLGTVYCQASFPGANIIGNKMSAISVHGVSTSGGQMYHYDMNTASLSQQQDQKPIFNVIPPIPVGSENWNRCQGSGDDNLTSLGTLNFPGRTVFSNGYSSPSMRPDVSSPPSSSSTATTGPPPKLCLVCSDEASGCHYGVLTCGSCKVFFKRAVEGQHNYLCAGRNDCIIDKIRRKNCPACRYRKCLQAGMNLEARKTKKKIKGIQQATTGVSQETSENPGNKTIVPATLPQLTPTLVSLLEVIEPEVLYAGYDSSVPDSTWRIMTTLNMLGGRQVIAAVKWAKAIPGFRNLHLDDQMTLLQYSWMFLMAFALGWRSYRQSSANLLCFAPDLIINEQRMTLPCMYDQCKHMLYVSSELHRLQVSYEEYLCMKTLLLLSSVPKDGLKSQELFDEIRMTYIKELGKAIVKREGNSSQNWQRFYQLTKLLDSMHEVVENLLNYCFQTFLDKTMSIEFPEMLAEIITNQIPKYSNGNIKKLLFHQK

CHRM1 = target: T2, CHRM1 (Homo sapiens, UniProt P11229); test: Safetyscan47 GPCR Calcium Flux, Antagonist; format: cell-based; settings: for Emax: read-out: Max Response
T2 sequence (P11229 1-460): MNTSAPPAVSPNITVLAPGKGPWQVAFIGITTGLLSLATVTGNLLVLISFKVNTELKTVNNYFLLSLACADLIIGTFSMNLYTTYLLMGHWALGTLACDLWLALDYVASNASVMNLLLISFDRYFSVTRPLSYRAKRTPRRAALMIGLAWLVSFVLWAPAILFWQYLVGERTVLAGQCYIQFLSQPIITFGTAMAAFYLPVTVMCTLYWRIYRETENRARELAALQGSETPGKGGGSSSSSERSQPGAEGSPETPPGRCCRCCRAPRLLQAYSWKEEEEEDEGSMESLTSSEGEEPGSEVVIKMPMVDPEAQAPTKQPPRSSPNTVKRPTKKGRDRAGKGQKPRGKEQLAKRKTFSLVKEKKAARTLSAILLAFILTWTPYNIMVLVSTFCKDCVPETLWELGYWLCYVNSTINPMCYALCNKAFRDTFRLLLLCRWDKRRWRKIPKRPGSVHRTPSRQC

HTR1B = HTR1B (Homo sapiens, UniProt P28222); test: Safetyscan47 GPCR cAMP, Agonist; format: cell-based; settings: for Emax: read-out: Max Response
integrin α8β1 = integrin α8β1 (Homo sapiens, UniProt P05556+P53708); test: ELISA competition assay, integrin α8β1; format: binding
ADRA1A = target: T3, ADRA1A (Homo sapiens, UniProt P35348); test: Safetyscan47 GPCR Calcium Flux, Antagonist; format: cell-based; settings: for Emax: read-out: Max Response
T3 sequence (P35348 1-466): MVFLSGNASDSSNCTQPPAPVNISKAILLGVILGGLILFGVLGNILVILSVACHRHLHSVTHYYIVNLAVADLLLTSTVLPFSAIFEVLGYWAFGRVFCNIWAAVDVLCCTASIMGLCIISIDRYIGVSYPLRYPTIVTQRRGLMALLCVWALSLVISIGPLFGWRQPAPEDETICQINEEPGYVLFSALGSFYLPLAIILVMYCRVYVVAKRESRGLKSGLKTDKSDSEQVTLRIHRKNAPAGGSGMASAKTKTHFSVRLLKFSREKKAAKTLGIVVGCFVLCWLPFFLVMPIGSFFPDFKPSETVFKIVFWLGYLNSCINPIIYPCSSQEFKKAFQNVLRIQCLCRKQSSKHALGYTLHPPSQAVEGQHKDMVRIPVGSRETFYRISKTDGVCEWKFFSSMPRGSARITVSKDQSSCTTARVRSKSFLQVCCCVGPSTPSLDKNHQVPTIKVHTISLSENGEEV

[1] = Plasma stability, mouse plasma; format: in vitro ADME
integrin αvβ6 = integrin αvβ6 (Homo sapiens, UniProt P06756+P18564); test: ELISA competition assay, integrin αvβ6 binding to LAP; settings: αvβ6 IC50, ELISA competition vs LAP; mean, n ≥ 3
integrin αvβ6, sequence (P06756 31-992 limits assumed): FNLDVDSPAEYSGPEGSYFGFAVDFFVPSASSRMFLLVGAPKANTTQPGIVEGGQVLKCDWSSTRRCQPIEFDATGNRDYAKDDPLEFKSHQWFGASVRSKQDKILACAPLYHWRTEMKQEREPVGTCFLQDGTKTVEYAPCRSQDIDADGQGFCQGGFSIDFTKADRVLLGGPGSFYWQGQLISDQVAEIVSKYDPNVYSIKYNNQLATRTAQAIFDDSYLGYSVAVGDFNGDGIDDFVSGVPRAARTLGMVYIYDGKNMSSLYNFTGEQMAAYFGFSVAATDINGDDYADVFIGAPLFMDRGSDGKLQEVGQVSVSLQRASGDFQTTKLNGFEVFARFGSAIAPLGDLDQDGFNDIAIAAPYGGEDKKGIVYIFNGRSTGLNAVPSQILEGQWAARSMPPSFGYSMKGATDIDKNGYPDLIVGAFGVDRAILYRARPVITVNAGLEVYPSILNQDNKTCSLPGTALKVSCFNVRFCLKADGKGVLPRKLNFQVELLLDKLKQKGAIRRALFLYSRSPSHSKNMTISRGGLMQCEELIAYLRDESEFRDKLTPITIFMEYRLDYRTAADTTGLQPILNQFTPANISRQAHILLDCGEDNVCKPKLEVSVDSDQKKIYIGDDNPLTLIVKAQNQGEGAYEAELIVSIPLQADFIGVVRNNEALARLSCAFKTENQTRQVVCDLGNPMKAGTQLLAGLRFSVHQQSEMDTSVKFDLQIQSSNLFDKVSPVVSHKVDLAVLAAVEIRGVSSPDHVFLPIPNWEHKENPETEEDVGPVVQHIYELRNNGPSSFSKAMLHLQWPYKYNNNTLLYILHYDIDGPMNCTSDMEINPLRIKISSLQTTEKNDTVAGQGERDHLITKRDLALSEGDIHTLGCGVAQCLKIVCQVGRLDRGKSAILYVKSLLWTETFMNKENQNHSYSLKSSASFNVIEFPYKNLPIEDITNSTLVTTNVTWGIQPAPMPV
integrin αvβ6, sequence (P18564 22-707 limits assumed): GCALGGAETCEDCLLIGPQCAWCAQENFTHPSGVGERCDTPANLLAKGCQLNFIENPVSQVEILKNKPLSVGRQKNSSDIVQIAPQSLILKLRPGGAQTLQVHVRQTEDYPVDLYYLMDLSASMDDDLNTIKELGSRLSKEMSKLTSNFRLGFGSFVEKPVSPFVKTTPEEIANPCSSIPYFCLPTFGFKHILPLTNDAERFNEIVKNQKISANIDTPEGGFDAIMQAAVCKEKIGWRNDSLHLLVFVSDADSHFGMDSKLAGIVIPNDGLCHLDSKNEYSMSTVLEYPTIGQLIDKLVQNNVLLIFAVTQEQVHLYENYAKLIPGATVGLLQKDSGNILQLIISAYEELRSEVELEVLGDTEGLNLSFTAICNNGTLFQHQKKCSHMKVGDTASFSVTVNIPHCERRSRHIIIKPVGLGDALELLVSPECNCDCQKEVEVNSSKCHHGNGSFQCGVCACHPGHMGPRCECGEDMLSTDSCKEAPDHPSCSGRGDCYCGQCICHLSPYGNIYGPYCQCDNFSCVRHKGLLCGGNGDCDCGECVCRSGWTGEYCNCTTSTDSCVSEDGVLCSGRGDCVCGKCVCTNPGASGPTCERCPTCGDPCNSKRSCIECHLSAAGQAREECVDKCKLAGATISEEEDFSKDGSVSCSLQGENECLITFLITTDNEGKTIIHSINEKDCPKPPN

HTR1B, sequence (P28222 whole entry): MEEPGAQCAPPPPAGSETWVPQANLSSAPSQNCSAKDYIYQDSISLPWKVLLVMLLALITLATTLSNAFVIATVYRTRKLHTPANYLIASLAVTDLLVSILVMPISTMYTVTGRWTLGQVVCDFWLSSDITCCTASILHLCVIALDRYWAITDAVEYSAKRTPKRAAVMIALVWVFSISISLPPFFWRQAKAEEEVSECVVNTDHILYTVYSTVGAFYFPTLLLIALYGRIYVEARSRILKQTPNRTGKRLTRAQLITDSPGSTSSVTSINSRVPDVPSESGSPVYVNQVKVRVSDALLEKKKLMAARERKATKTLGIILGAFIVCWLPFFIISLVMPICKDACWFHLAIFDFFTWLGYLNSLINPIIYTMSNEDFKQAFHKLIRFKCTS
OPRK1, sequence (P41145 whole entry): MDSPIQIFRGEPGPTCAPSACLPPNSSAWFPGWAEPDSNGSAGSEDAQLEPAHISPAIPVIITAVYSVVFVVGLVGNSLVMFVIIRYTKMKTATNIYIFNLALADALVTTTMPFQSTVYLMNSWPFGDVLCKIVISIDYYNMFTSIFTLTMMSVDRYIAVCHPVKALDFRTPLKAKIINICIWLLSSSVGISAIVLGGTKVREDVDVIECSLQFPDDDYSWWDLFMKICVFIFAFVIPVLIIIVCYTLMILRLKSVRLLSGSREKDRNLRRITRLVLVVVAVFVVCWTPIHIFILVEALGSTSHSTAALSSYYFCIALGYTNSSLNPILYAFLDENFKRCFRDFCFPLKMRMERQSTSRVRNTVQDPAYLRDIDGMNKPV
integrin α8β1, sequence (P53708 39-1011 limits assumed): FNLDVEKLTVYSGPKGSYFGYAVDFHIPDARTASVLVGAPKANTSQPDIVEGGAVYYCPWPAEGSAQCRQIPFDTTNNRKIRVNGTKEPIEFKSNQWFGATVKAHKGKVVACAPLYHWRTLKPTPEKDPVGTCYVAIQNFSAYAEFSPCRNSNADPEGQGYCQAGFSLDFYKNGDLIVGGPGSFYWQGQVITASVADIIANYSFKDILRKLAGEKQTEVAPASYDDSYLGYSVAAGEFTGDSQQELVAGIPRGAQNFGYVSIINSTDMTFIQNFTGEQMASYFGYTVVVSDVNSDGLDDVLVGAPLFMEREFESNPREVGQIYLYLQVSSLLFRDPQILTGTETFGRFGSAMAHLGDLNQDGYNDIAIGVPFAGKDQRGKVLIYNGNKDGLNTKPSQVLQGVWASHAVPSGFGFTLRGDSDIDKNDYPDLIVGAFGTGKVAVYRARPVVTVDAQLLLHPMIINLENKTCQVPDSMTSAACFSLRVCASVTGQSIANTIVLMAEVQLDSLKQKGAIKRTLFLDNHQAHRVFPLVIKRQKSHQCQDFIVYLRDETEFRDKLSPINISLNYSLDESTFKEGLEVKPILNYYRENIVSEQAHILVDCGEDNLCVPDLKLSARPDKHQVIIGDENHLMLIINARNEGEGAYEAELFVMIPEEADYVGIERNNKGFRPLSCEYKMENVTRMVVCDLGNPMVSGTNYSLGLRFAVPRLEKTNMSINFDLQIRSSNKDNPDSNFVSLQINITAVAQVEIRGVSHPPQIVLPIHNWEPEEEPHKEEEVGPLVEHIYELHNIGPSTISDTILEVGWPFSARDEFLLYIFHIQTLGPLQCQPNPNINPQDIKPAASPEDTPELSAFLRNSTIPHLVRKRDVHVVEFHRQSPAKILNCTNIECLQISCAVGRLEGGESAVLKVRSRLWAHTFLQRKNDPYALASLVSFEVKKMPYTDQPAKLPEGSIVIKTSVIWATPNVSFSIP
integrin α8β1, sequence (P05556 21-728 limits assumed): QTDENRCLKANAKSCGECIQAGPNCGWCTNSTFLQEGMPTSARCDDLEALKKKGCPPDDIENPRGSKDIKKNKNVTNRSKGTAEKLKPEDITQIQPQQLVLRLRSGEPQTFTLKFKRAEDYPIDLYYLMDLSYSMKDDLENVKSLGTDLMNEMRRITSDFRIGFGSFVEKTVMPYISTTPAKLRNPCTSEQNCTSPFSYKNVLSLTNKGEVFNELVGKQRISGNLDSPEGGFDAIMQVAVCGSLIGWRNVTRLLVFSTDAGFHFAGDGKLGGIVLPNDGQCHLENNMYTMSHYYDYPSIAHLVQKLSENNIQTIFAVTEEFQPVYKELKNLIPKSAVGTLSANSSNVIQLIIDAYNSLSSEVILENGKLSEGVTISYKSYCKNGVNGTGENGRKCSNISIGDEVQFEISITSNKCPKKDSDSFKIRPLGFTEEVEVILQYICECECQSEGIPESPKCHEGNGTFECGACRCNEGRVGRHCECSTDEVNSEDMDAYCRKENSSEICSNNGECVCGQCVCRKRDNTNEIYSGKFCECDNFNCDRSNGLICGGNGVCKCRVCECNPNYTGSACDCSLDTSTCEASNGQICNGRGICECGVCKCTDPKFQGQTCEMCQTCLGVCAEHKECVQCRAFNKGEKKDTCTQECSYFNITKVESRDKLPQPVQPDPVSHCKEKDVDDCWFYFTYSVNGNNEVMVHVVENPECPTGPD

## CC[C@H](C)[C@H](NC(=O)[C@H](CC(C)C)NC(=O)[C@H](CC(=O)O)NC(=O)CNC(=O)[C@H](CCCNC(=N)N)NC(=O)[C@@H](NC(=O)[C@H](Cc1ccccc1)NC(=O)[C@H](Cc1ccc(O)cc1)NC(=O)[C@@H]1CCC(=O)NCC(=O)NCC(=O)N[C@@H](CCCNC(=N)N)C(=O)NCC(=O)N[C@@H](Cc2c[nH]cn2)C(=O)N[C@@H](C(C)C)C(=O)N2CCC[C@H]2C(=O)N1)C(C)C)C(=O)N[C@@H](CO)C(=O)N[C@@H](Cc1ccccc1)C(=O)N[C@@H](Cc1ccc(O)cc1)C(=O)N[C@@H](CCCCN)C(=O)O [lassotide 36] (GGRGHVPEYFVRGDLISFYK-OH; lactam N-8)
OPRK1
  EC50: > 45 µM
  Emax: 2.19%
GR
  IC50: > 45 µM
  Emax: 0%
CHRM1
  IC50: > 45 µM
  Emax: 8.3%
HTR1B
  EC50: > 45 µM
  Emax: 2.61%
Integrin α8β1
  IC50: 3.89 µM
ADRA1A
  IC50: > 45 µM
  Emax: 9.9%
[1]
  half-life at 2 μM: 5.1 h
  remaining at 0.5 h, 2 μM: 88.7%
  remaining at 4 h, 2 μM: 56.1%
Integrin αvβ6
  IC50: 0.012 µM

## CC[C@H](C)[C@H](NC(=O)[C@H](CC(C)C)NC(=O)[C@H](CC(=O)O)NC(=O)CNC(=O)[C@H](CCCNC(=N)N)NC(=O)[C@@H](NC(=O)[C@H](Cc1ccccc1)NC(=O)[C@H](Cc1ccc(O)cc1)NC(=O)[C@@H]1CCC(=O)NCC(=O)NCC(=O)N[C@@H](CCCNC(=N)N)C(=O)NCC(=O)N[C@@H](Cc2c[nH]cn2)C(=O)N[C@@H](C(C)C)C(=O)N2CCC[C@H]2C(=O)N1)C(C)C)C(=O)N[C@@H](CO)C(=O)N[C@@H](Cc1ccccc1)C(=O)N[C@@H](Cc1ccc(O)cc1)C(=O)N[C@@H](CCCCNC(=O)CCOCCOCCNC(=O)CCCc1ccc(I)cc1)C(=O)O [lassotide 47] (GGRGHVPEYFVRGDLISFYK([PEG2-Butanoyl(4-(4-I-phenyl))])-OH; lactam N-8)
OPRK1
  EC50: > 45 µM
  Emax: 23.4%
GR
  IC50: > 45 µM
  Emax: 0%
CHRM1
  IC50: > 45 µM
  Emax: 0%
HTR1B
  EC50: > 45 µM
  Emax: 22.4%
Integrin α8β1
  IC50: > 10 µM
ADRA1A
  IC50: > 45 µM
  Emax: 2.58%
[1]
  remaining at 0.5 h, 2 μM: 86.3%
  remaining at 4 h, 2 μM: 86.9%
Integrin αvβ6
  IC50: 0.0032 µM
